In US20110053833A1, “SYNTHETIC PEPTIDES AND THEIR USE” (priority 2007, published 2011):

How the values were obtained:
Assay type in all cases: cell-based
S. aureus = test: Microbicidal activity, peptides incubated with S. aureus for 2 h in BP; conditions: 2 h incubation in BP; two fold dilution steps starting at 100 μg/ml
Procedure: (§1) The peptides were incubated with E. coli, S. aureus or C. albicans for 2 h in BP. The peptides were diluted in two fold steps starting at 100 μg/ml or 200 μg/ml (C. albicans).

C. albicans = test: Microbicidal activity, peptides incubated with C. albicans for 2 h in BP; conditions: 2 h incubation in BP; two fold dilution steps starting at 200 μg/ml
Procedure: as §1

E. coli = test: Microbicidal activity, peptides incubated with E. coli for 2 h in BP; conditions: 2 h incubation in BP; two fold dilution steps starting at 100 μg/ml
Procedure: as §1

[1] = system: E. coli, S. aureus or C. albicans; test: Microbicidal activity, overall comparison with native hLF-derived peptide; conditions: versus HLBD1
Procedure: as §1

| Substance | MMC99% S. aureus (S. aureus) | MMC99% C. albicans (C. albicans) | MMC99% E. coli (E. coli) | microbicidal activity compared with the corresponding peptide derived from the sequence of native hLF [1] |
| --- | --- | --- | --- | --- |
| EATKCFQWQRNMRKVRGPPVSCIKR (EATKCFQWQRNMRKVRGPPVSCIKR; a fragment of human lactoferrin corresponding to aa 16-40 wherein two aa has been substituted) [HLBD1, reference compound] | 50 µg/mL | 200 µg/mL | 50 µg/mL |  |
| EATKCFQWKRNMRKVRGPPVSCIKR (EATKCFQWKRNMRKVRGPPVSCIKR; a fragment of human lactoferrin corresponding to aa 16-40 wherein one aa has been substituted) [HLBD1Q24K, synthetic peptide according to the present invention] | 25 µg/mL | 50 µg/mL | 12 µg/mL | considerably higher |
